{
  "source": "patent US7807882B2",
  "about": "“Herbicide-resistant sunflower plants, polynucleotides encoding herbicide-resistant acetohydroxyacid synthase large subunit proteins, and methods of use” (priority 2004, dated 2010)",
  "test_in_all_cases": "Field trial, sulfonylurea tolerance (herbicide injury ratings), Balcarce",
  "format_in_all_cases": "in vivo, Helianthus annuus",
  "key": {"[1]": {"system": "HA89 (wild-type) sunflower line", "conditions": "No injury = 0", "excerpt": "(§1) To evaluate the tolerance of MUT28 sunflower plants to sulfonylurea herbicides, HA89 (wild-type), MUT28, IMISUN-1, and SURES-1 sunflower lines were planted outdoors in Balcarce, Argentina during the growing season in an RCBD field trial with two replications to evaluate the tolerance of MUT28 plants to the sulfonylurea herbicide thifensulfuron (TFS) at 1× and 2× rates. The 1× rates for TFS is 4.4 g a.i./ha."}, "[2]": {"system": "IMISUN-1 sunflower line", "conditions": "line IMISUN-1, No injury = 0", "excerpt": "as §1"}, "[3]": {"system": "MUT28 sunflower line", "conditions": "No injury = 0", "excerpt": "as §1"}, "[4]": {"system": "SURES-1 sunflower line", "conditions": "line SURES-1, No injury = 0", "excerpt": "as §1"}},
  "data": [
    {"smiles": "COc1nc(C)nc(NC(=O)NS(=O)(=O)c2ccsc2C(=O)O)n1", "note": "[thifensulfuron]", "values": [
      {"measurement": "Herbicide Injury Ratings", "setting": "[1]; rate 1× (4.4 g a.i./ha)", "value": 75},
      {"measurement": "Herbicide Injury Ratings", "setting": "[1]; rate 2× (1× is 4.4 g a.i./ha)", "value": 75},
      {"measurement": "Herbicide Injury Ratings", "setting": "[2]; rate 1× (4.4 g a.i./ha)", "value": 20},
      {"measurement": "Herbicide Injury Ratings", "setting": "[2]; rate 2× (1× is 4.4 g a.i./ha)", "value": 75},
      {"measurement": "Herbicide Injury Ratings", "setting": "[3]; rate 1× (4.4 g a.i./ha)", "value": 30},
      {"measurement": "Herbicide Injury Ratings", "setting": "[3]; rate 2× (1× is 4.4 g a.i./ha)", "value": 42},
      {"measurement": "Herbicide Injury Ratings", "setting": "[4]; rate 1× (4.4 g a.i./ha)", "value": 5},
      {"measurement": "Herbicide Injury Ratings", "setting": "[4]; rate 2× (1× is 4.4 g a.i./ha)", "value": 3}
    ]}
  ]
}
